Measured values from PubChem BioAssay AID1918931 (Molecular Pharmacology Branch, DTP, NCI, 2023).
pIC50: −log10 of the molar value.

Tested on: 138582-337-R-J1-PDC complex spheroid viability
Assay: Anticancer human tumor 138582-337-R-J1-PDC patient-derived Merkel cell tumor cell line growth inhibition
Conditions: for pIC50: curve of first compound; for viability, T/C: stronger effect = lower value
Summary of the method: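 Drug combinations with the LSD1 inhibitor iadademstat tested on tumor cells co-cultured as spheroids with endothelial cells and mesenchymal stem cells. Concentrations descended in half-log increments from clinical Cmax or 10 microM.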

[1] = second compound 0.1 µM, first compound 0.0316 µM
[2] = second compound 0.1 µM, first compound 0.1 µM
[3] = second compound 0.316 µM, first compound 0.0316 µM
[4] = second compound 0.316 µM, first compound 0.1 µM
[5] = second compound 1 µM, first compound 0.0316 µM
[6] = second compound 1 µM, first compound 0.1 µM
[7] = second compound 3.16 µM, first compound 0.0316 µM
[8] = second compound 3.16 µM, first compound 0.1 µM
[9] = second compound 10 µM, first compound 0.0316 µM
[10] = second compound 10 µM, first compound 0.1 µM
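Also: spheroids exposed to agents for 7 days.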
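For viability, T/C in this document: 100% = DMSO vehicle control viability.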

`CC1(C)CCC(CN2CCN(c3ccc(C(=O)NS(=O)(=O)c4ccc(NCC5CCOCC5)c([N+](=O)[O-])c4)c(Oc4cnc5[nH]ccc5c4)c3)CC2)=C(c2ccc(Cl)cc2)C1` + NC1CCC(NC2CC2c2ccccc2)CC1 was tested, and the pIC50 (second compound 0.1 µM) was under 5.00, the pIC50 (second compound 0.316 µM) was under 5.00 and the pIC50 (second compound 1 µM) was under 5.00. For the same compound, the pIC50 (second compound 3.16 µM) was under 5.00, the pIC50 (second compound 10 µM) was under 5.00 and the viability, T/C [1] was 85.4%. For the same compound, the viability, T/C [2] was 95%, the viability, T/C (second compound 0.1 µM, first compound 0.316 µM) was 92.5% and the viability, T/C (second compound 0.1 µM, first compound 1 µM) was 91.8%. The viability, T/C (second compound 0.1 µM, first compound 3.16 µM) was 90.7%, the viability, T/C (second compound 0.1 µM, first compound 10 µM) was 126% and the viability, T/C [3] was 95.9%. For the same compound, the viability, T/C [4] was 104%, the viability, T/C (second compound 0.316 µM, first compound 0.316 µM) was 99.1% and the viability, T/C (second compound 0.316 µM, first compound 1 µM) was 109%. For the same compound, the viability, T/C (second compound 0.316 µM, first compound 3.16 µM) was 96.8%, the viability, T/C (second compound 0.316 µM, first compound 10 µM) was 88.7% and the viability, T/C [5] was 99.8%. It also gave a viability, T/C [6] of 89.9%, a viability, T/C (second compound 1 µM, first compound 0.316 µM) of 82.3% and a viability, T/C (second compound 1 µM, first compound 1 µM) of 79.9%. It also gave a viability, T/C (second compound 1 µM, first compound 3.16 µM) of 92.1%, a viability, T/C (second compound 1 µM, first compound 10 µM) of 81.3% and a viability, T/C [7] of 90.7%. For the same compound, the viability, T/C [8] was 100%, the viability, T/C (second compound 3.16 µM, first compound 0.316 µM) was 108% and the viability, T/C (second compound 3.16 µM, first compound 1 µM) was 106%. The viability, T/C (second compound 3.16 µM, first compound 3.16 µM) was 92.5%, the viability, T/C (second compound 3.16 µM, first compound 10 µM) was 77.3% and the viability, T/C [9] was 80.2%. The viability, T/C [10] was 88.1%, the viability, T/C (second compound 10 µM, first compound 0.316 µM) was 70.8% and the viability, T/C (second compound 10 µM, first compound 1 µM) was 78.7%. The viability, T/C (second compound 10 µM, first compound 3.16 µM) was 78.3% and the viability, T/C (second compound 10 µM, first compound 10 µM) was 63.5%.
`Cn1ncnc1C1c2n[nH]c(=O)c3cc(F)cc(c23)NC1c1ccc(F)cc1` (stereo not given) + NC1CCC(NC2CC2c2ccccc2)CC1 gave a pIC50 (second compound 0.1 µM) of under 7.00, a pIC50 (second compound 0.316 µM) of under 7.00 and a pIC50 (second compound 1 µM) of under 7.00. It also gave a pIC50 (second compound 3.16 µM) of under 7.00, a pIC50 (second compound 10 µM) of under 7.00 and a viability, T/C (second compound 0.1 µM, first compound 0.000316 µM) of 82.5%. It also gave a viability, T/C (second compound 0.1 µM, first compound 0.001 µM) of 87.7%, a viability, T/C (second compound 0.1 µM, first compound 0.00316 µM) of 89% and a viability, T/C (second compound 0.1 µM, first compound 0.01 µM) of 91.2%. For the same compound, the viability, T/C [1] was 87.9%, the viability, T/C [2] was 98.5% and the viability, T/C (second compound 0.316 µM, first compound 0.000316 µM) was 84.7%. For the same compound, the viability, T/C (second compound 0.316 µM, first compound 0.001 µM) was 90.9%, the viability, T/C (second compound 0.316 µM, first compound 0.00316 µM) was 95.7% and the viability, T/C (second compound 0.316 µM, first compound 0.01 µM) was 79.1%. It also gave a viability, T/C [3] of 93.3%, a viability, T/C [4] of 105% and a viability, T/C (second compound 1 µM, first compound 0.000316 µM) of 97.5%. For the same compound, the viability, T/C (second compound 1 µM, first compound 0.001 µM) was 88.7%, the viability, T/C (second compound 1 µM, first compound 0.00316 µM) was 94.3% and the viability, T/C (second compound 1 µM, first compound 0.01 µM) was 83.8%. For the same compound, the viability, T/C [5] was 90.7%, the viability, T/C [6] was 97.9% and the viability, T/C (second compound 3.16 µM, first compound 0.000316 µM) was 101%. For the same compound, the viability, T/C (second compound 3.16 µM, first compound 0.001 µM) was 89.4%, the viability, T/C (second compound 3.16 µM, first compound 0.00316 µM) was 83.1% and the viability, T/C (second compound 3.16 µM, first compound 0.01 µM) was 81.2%. The viability, T/C [7] was 82.3%, the viability, T/C [8] was 102% and the viability, T/C (second compound 10 µM, first compound 0.000316 µM) was 84.7%. For the same compound, the viability, T/C (second compound 10 µM, first compound 0.001 µM) was 82.8%, the viability, T/C (second compound 10 µM, first compound 0.00316 µM) was 83.2% and the viability, T/C (second compound 10 µM, first compound 0.01 µM) was 77%. For the same compound, the viability, T/C [9] was 73.7% and the viability, T/C [10] was 81.5%.
`NS(=O)(=O)OCC1CC(n2ccc3c(NC4CCc5ccccc54)ncnc32)CC1O` (stereo not given) + NC1CCC(NC2CC2c2ccccc2)CC1 gave a pIC50 (second compound 0.1 µM) of 6.21, a pIC50 (second compound 0.316 µM) of 6.18 and a pIC50 (second compound 1 µM) of 6.20. The pIC50 (second compound 3.16 µM) was 6.33, the pIC50 (second compound 10 µM) was 6.09 and the viability, T/C (second compound 0.1 µM, first compound 0.00949 µM) was 98.5%. The viability, T/C (second compound 0.1 µM, first compound 0.03 µM) was 114%, the viability, T/C (second compound 0.1 µM, first compound 0.0949 µM) was 92.1% and the viability, T/C (second compound 0.1 µM, first compound 0.3 µM) was 67.2%. It also gave a viability, T/C (second compound 0.1 µM, first compound 0.949 µM) of 40.5%, a viability, T/C (second compound 0.1 µM, first compound 3 µM) of 33.1% and a viability, T/C (second compound 0.316 µM, first compound 0.00949 µM) of 112%. It also gave a viability, T/C (second compound 0.316 µM, first compound 0.03 µM) of 96.2%, a viability, T/C (second compound 0.316 µM, first compound 0.0949 µM) of 84.2% and a viability, T/C (second compound 0.316 µM, first compound 0.3 µM) of 67.3%. It also gave a viability, T/C (second compound 0.316 µM, first compound 0.949 µM) of 37.4%, a viability, T/C (second compound 0.316 µM, first compound 3 µM) of 37% and a viability, T/C (second compound 1 µM, first compound 0.00949 µM) of 106%. For the same compound, the viability, T/C (second compound 1 µM, first compound 0.03 µM) was 107%, the viability, T/C (second compound 1 µM, first compound 0.0949 µM) was 85.5% and the viability, T/C (second compound 1 µM, first compound 0.3 µM) was 72.4%. The viability, T/C (second compound 1 µM, first compound 0.949 µM) was 35.3%, the viability, T/C (second compound 1 µM, first compound 3 µM) was 32.2% and the viability, T/C (second compound 3.16 µM, first compound 0.00949 µM) was 101%. The viability, T/C (second compound 3.16 µM, first compound 0.03 µM) was 119%, the viability, T/C (second compound 3.16 µM, first compound 0.0949 µM) was 90.1% and the viability, T/C (second compound 3.16 µM, first compound 0.3 µM) was 64.3%. The viability, T/C (second compound 3.16 µM, first compound 0.949 µM) was 29.8%, the viability, T/C (second compound 3.16 µM, first compound 3 µM) was 22.2% and the viability, T/C (second compound 10 µM, first compound 0.00949 µM) was 107%. It also gave a viability, T/C (second compound 10 µM, first compound 0.03 µM) of 107%, a viability, T/C (second compound 10 µM, first compound 0.0949 µM) of 92.8% and a viability, T/C (second compound 10 µM, first compound 0.3 µM) of 79.5%. The viability, T/C (second compound 10 µM, first compound 0.949 µM) was 44.4% and the viability, T/C (second compound 10 µM, first compound 3 µM) was 26%.
